The source made the active and inactive calls.
Assays:
[1] = microbe, parasite or virus in culture; format: functional; conditions: Mycobacterium tuberculosis
[2] = inhibitors of intracellular T. cruzi replication, confirmation, NIH3T3 host cells, beta-gal luminescence (AID 2044); format: functional, cell-based;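 note: intracellular parasites grown in NIH/3T3 mouse fibroblasts as host cells; luminescent beta-galactosidase reporter signal from transgenic T. cruzi replicating inside host cells; inhibitors lower the luminescence signal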
[3] = cytotoxicity toward NIH3T3 fibroblasts, dose response, counter-screen, cell-based, ATP luminescence, mouse fibroblasts (AID 2010); format: functional;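 note: cells exposed to compound for about 90 hours before reading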
H9c2 = assay: cells; format: functional, cell-based; conditions: Rattus norvegicus, H9c2, Myocardium;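 note: confirmatory concentration-response retest of ultra-high-throughput screening hits for modulation of myocardial damage; cell death induced by hydrogen peroxide oxidative stress; compound pretreatment for 60 min then peroxide exposure for 2 h; potency is for protecting the cells against peroxide damage rather than for killing them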
cells = format: functional
[4] = biological target: T1, RNA-binding protein pos-1 (Caenorhabditis elegans, UniProt G5EF15); assay: inhibitors of POS-1/mex-3 RNA binding, dose response, biochemical, fluorescence polarization (AID 1964);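 note: purified POS-1 fused to maltose binding protein made in E. coli; potency of compounds blocking POS-1 binding to fluorescent RNA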
T1 sequence (G5EF15 whole entry): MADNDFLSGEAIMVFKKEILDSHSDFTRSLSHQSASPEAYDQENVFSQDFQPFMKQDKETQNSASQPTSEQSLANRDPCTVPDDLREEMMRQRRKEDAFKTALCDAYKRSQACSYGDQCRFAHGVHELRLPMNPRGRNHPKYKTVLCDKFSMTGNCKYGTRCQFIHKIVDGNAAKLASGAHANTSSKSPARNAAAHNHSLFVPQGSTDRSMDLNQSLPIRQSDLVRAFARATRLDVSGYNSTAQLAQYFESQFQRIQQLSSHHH

[5] = biological target: T2, Zinc finger protein mex-5 (Caenorhabditis elegans, UniProt Q9XUB2); assay: MEX-5/TCR-2 RNA interaction inhibitors, dose response, biochemical, C. elegans, fluorescence polarization (AID 1960)
T2 sequence (Q9XUB2 whole entry): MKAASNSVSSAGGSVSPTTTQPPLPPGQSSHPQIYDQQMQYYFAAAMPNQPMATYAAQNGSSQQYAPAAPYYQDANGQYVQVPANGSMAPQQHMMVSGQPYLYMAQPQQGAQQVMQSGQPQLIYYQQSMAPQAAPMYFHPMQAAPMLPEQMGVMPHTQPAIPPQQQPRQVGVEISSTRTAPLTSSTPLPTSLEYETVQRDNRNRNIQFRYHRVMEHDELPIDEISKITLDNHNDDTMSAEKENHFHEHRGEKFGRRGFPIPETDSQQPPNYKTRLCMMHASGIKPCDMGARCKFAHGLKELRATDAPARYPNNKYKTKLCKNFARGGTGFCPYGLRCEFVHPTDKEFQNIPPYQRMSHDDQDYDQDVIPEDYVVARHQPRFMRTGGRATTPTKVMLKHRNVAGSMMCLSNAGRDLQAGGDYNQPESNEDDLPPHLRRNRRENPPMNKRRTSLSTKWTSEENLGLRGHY

[6] = biological target: T3, Carboxy-terminal domain RNA polymerase II polypeptide A small phosphatase 1 (Homo sapiens, UniProt Q9GZU7); assay: inhibitors of CTDSP1, concentration-response testing, biochemical assay, absorbance-based, actives from ultra-high-throughput screening (AID 540297); format: functional
T3 sequence (Q9GZU7 whole entry): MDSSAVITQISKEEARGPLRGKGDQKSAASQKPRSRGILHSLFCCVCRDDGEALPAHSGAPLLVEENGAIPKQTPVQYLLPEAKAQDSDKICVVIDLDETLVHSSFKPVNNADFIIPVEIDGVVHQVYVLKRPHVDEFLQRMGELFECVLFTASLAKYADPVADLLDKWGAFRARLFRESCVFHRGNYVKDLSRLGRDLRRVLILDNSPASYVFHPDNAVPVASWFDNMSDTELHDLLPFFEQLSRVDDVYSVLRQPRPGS

[7] = biological target: T4, Corticotropin-releasing factor receptor 2/Corticotropin-releasing factor-binding protein (Homo sapiens, UniProt P24387+Q13324); assay: Dose Response confirmation of uHTS hits for small molecule antagonists of the CRF-binding protein and CRF-R2 receptor complex.; format: functional; conditions: read-out: IC50_Mean
T4 sequence (Q13324 whole entry): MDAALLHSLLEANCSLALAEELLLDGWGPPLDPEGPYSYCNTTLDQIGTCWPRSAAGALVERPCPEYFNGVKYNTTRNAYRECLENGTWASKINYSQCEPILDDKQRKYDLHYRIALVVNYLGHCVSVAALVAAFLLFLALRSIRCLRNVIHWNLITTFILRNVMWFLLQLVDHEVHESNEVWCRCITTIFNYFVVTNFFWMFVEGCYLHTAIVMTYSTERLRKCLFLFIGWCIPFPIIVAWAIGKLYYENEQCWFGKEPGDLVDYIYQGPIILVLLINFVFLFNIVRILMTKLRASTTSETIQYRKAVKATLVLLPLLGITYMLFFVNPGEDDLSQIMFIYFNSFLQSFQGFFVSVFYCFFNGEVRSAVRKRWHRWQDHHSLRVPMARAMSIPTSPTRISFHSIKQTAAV
T4 sequence (P24387 whole entry): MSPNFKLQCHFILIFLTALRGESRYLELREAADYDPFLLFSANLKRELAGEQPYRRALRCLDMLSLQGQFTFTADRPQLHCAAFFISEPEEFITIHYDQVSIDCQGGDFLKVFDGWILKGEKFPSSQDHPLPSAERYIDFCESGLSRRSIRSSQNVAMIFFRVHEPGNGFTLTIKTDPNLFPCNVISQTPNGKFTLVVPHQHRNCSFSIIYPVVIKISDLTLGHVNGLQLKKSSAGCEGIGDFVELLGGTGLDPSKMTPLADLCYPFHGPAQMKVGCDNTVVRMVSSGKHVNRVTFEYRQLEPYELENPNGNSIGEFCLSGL

[8] = biological target: T4, Corticotropin-releasing factor receptor 2/Corticotropin-releasing factor-binding protein; assay: activators of CRF receptor 2 with binding protein – uHTS hits, confirmation (AID 602473); format: functional; conditions: read-out: EC50_Mean
[9] = biological target: T5, Short transient receptor potential channel 4 (Mus musculus, UniProt Q9QUQ5); assay: mouse TRPC4 channel activators, dose response, cell-based, HEK293 TRPC4/mu-opioid, Fluo-4 calcium (AID 434937); format: functional
T5 sequence (Q9QUQ5 whole entry): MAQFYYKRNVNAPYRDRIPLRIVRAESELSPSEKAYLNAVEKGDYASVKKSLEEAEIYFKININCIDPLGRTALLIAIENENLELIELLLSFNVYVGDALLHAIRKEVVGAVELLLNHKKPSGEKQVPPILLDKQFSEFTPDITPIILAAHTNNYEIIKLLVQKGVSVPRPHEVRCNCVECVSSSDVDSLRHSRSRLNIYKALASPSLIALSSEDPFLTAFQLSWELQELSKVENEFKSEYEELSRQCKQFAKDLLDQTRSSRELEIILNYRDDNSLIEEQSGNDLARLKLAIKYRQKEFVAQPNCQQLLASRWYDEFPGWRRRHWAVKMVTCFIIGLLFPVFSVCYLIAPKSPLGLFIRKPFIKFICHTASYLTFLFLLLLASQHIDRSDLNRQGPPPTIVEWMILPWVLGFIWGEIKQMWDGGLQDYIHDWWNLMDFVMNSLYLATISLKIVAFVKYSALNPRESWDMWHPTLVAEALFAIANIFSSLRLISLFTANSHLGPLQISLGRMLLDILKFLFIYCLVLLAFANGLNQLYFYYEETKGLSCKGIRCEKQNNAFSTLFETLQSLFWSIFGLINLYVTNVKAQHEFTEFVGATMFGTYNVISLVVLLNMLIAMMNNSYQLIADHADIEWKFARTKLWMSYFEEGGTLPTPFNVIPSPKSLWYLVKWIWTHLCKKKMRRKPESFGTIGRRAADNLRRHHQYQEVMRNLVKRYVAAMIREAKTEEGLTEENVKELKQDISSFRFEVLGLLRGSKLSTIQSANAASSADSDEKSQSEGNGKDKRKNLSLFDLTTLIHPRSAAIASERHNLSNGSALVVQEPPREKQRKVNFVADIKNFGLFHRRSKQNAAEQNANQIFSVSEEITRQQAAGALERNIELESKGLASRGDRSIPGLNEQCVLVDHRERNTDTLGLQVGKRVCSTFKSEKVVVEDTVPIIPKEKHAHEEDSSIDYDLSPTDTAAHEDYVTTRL

[10] = system: Streptococcus sp. 'group A'; assay: growth inhibition of control SK(-) GAS strain, dose response, counter-screen for streptokinase expression inhibitor project, luminescence, kanamycin, BacTiterGlo, confirmation (AID 1900); format: functional, organism-based
Streptokinase A = biological target: T6, Streptokinase A (Streptococcus pyogenes serotype M1, UniProt P10520); assay: S. pyogenes streptokinase expression inhibitors, potency, dose response, plasminogen activation absorbance, OD405 (AID 1914); format: functional, Streptococcus pyogenes M1 GAS;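 note: secreted streptokinase activity via plasminogen activation per viability signal from cell pellet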
T6 sequence (P10520 whole entry): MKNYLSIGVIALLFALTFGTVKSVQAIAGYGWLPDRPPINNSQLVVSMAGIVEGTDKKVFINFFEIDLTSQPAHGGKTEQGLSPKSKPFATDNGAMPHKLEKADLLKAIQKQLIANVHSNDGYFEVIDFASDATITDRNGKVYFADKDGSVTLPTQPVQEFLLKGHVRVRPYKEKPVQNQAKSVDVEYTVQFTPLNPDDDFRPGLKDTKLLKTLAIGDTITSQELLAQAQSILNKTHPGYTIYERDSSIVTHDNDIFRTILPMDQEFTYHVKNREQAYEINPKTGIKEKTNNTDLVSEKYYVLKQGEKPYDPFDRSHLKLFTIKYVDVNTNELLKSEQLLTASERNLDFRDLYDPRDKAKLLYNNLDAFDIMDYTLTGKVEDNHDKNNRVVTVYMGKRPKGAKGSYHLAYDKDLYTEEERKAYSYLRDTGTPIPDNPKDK

Streptococcus = assay: Group A Streptococcus viability loss, dose response, counter-screen for streptokinase expression inhibitor project, luminescence, BacTiterGlo (AID 1915); format: functional, organism-based;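 note: potency for reduction of bacterial viability or growth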
[11] = biological target: T7, Polyadenylate-binding protein 1 (Homo sapiens, UniProt P11940); assay: PABP1 MLLE–PAM2 interaction inhibitors, dose response, miRNA deadenylation inhibitor project, biochemical, fluorescence polarization, Cy5-PAM2 peptide, secondary (AID 602260); format: functional; conditions: read-out: IC50_Mean
T7 sequence (P11940 whole entry): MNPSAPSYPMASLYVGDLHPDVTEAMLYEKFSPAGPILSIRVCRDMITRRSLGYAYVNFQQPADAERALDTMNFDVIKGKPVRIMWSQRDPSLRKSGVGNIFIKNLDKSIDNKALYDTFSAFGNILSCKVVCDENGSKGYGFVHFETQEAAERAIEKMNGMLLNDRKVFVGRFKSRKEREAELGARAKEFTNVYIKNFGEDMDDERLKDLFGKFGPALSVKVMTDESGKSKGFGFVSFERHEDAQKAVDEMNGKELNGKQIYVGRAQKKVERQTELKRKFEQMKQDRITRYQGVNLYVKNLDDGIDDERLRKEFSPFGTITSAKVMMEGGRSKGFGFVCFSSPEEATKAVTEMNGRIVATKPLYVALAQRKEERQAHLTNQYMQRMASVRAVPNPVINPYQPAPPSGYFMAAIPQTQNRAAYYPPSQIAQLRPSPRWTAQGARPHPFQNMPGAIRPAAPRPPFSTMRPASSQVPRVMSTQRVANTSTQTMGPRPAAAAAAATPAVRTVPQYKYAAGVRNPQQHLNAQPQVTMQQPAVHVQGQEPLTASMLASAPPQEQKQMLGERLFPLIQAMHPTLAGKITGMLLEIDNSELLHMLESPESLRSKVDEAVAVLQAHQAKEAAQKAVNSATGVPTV

[12] = biological target: T7, Polyadenylate-binding protein 1; assay: PABP1 MLLE–PAM2 binding inhibitor potency, dose response, biochemical, fluorescence polarization, FITC-PAM2 peptide (AID 602259); format: functional; conditions: read-out: IC50_Mean

Compound: CC/N=c1\scc(-c2ccco2)n1/N=C/c1ccc(OC)c(O)c1
- CC50 [1]: > 40 µM (active)

Compound: NC(=S)N/N=C/c1ccccc1OCCSc1ccc(Cl)cc1
- EC50 [2]: 0.224 µM (active)
- CC50 [1]: 24.6 µM (active)
- EC50 [3]: > 60 µM (not active)

Compound: O=C(CSc1ccc(-c2ccccn2)nn1)N1CCCc2ccccc21
- IC50 (H9c2): 20.8 µM (active)

Compound: Cc1c(C(=O)N(C)C)sc2nc(-c3ccccn3)nc(O)c12
- CC50 [1]: > 40 µM (active)
- IC50 (cells): 9.8 µM (active)

Compound: Cc1cc(=O)oc2cc(OCC(=O)N3CCN(C(=O)C4COc5ccccc5O4)CC3)c(Cl)cc12 (stereo unspecified)
- IC50 (H9c2): > 79 µM (inactive)

Compound: C=CCn1cc/c(=N\C=C(C#N)C#N)c2ccccc21
- EC50 [4]: > 300 µM (not active)
- EC50 [5]: > 300 µM (not active)

Compound: O=C(Nc1cccc(-c2csc(Nc3ccc(Cl)cc3)n2)c1)c1cccc(C(F)(F)F)c1
- CC50 [1]: 20.6 µM (active)

Compound: Cc1nn(-c2cc(Cl)ccc2N)c(=O)c2ccccc12
- IC50 [6]: 63.2 µM (active)

Compound: Cn1c(=O)[nH]c(=O)c2c1nc(N/N=C/C(Br)=C/c1ccccc1)n2CCO
- EC50 [4]: 206 µM (active)
- EC50 [5]: 55.5 µM (active)

Compound: Cc1ccc(C2C(C(=O)c3ccco3)=C(O)C(=O)N2c2nnc(C)s2)cc1 (stereo unspecified)
- EC50 [4]: > 300 µM (not active)
- EC50 [5]: > 300 µM (inconclusive)

Compound: N#C/C(=C1\CCCN1)c1nc(O)c2ccccc2n1
- IC50 (H9c2): 60.4 µM (inactive)
- IC50 [7]: > 47.1 µM (inactive)
- EC50 [8]: > 53 µM (inactive)

Compound: C=CCOC(=O)C1=C[C@H](c2cn(C(C)=O)c3ccccc23)C[C@H](OCc2ccc(CO)cc2)O1
- IC50 (H9c2): 10.3 µM (active)

Compound: CN(C)CCCN(C(=O)c1ccc(S(=O)(=O)N2CCCCCC2)cc1)c1nc2ccc(F)cc2s1
- EC50 [9]: 4.22 µM (active)

Compound: Cc1ccc(-c2ccc(=O)n(CC(=O)N3CCN(c4cc(Cl)ccc4C)CC3)n2)cc1
- CC50 [1]: > 40 µM (active)

Compound: C=C1c2cccc(OC)c2O[C@H](C(=O)OCC)[C@@H]1CCCCCC
- IC50 [6]: 10.2 µM (active)

Compound: COC(=O)CNC(=O)C1Nc2ccccc2C2C=CCC12 (stereo unspecified)
- EC50 [4]: > 300 µM (not active)
- EC50 [5]: 173 µM (active)

Compound: COc1cc(/C=N/NC(=O)c2ccncc2)ccc1OC(=O)c1cccc(F)c1
- IC50 (cells): 0.48 µM (active)

Compound: COC(=O)COc1cccc(/C=N/NC(=O)CCSc2ccccc2)c1
- IC50 (cells): 4.13 µM (active)

Compound: NC(=O)c1ccccc1OCC(=O)Nc1cccnc1Cl
- IC50 (H9c2): 27.7 µM (active)

Compound: O=C(Cc1ccccc1)N/N=C/c1ccc2cccc(O)c2n1
- CC50 [1]: > 40 µM (active)

Compound: COc1ccc(-c2nc(CSCC(=O)NC3CCN(Cc4ccccc4)CC3)c(C)o2)cc1OC
- EC50 [9]: 1.5 µM (active)

Compound: Cc1ccc(/C=C2/Sc3ccc(C(=O)N4CCN(c5ccccn5)CC4)cc3NC2=O)cc1
- EC50 [4]: 27.2 µM (active)
- EC50 [10]: 3.03 µM (active)
- EC50 [5]: 5.05 µM (active)
- EC50 (Streptokinase A): > 150 µM (not active)
- EC50 (Streptococcus): 4.43 µM (active)

Compound: O=C(C1CC(=O)N(c2ccc3c(c2)OCCO3)C1)N1CCN(c2cccc(C(F)(F)F)c2)CC1 (stereo unspecified)
- CC50 [1]: > 40 µM (active)

Compound: NC(=O)c1ccsc1NC(=O)COC(=O)Cc1nnc(O)c2ccccc12
- IC50 (H9c2): > 79 µM (inactive)

Compound: C[C@H]1OC[C@@H](C[N+](C)(C)C)O1
- EC50 [9]: 0.188 µM (active)

Compound: Brc1ccc(-c2ccc(/C=N/Nc3nncc(-c4ccccc4)n3)o2)cc1
- CC50 [1]: 20.7 µM (active)

Compound: CC1C2C(C)N(C)C(=O)N(C)C2N(C)C(=O)N1C (stereo unspecified)
- EC50 [4]: 25 µM (active)
- EC50 [5]: 18.5 µM (active)
- IC50 [11]: > 66 µM (inactive)
- IC50 [12]: 29.1 µM (inactive)

Compound: CCOc1ccc(C(=O)COC(=O)Cn2[nH]c(=O)c3ccccc3c2=O)cc1
- IC50 (H9c2): > 79 µM (inactive)

Compound: S=C(NCCc1ccccn1)NC1CCCCC1
- EC50 [9]: 6.68 µM (active)

Compound: N#CCC(=O)N/N=C/c1ccc(Sc2nc3ccccc3s2)o1
- IC50 [6]: 9.4 µM (active)

Source: ChEMBL document CHEMBL1201862, “PubChem BioAssay data set” (2004)
